For one experiment, the system named is NCI-H596 tumors. Nature of the experiment: Combination efficacy of MetMAb with erlotinib in the NCI-H596 hu-HGF-Tg-C3H-SCID xenograft model. Format: in vivo. The following applies: NCI-H596 tumors in hu-HGF-Tg-C3H-SCID mice, MetMAb 30 mg/kg IP once, erlotinib 150 mg/kg PO QD x2 weeks; for reduction in tumor growth compared to the vehicle control: day 20. On the procedure:
Test Material. Anti-c-met monovalent monoclonal antibody MetMAb (rhuOA5D5v2) was provided by the Antibody Engineering Department at Genentech, Inc., in a clear liquid form at 10.6 mg/ml. The vehicle was 10 mM histidine succinate, 4% trehalose dihydrate, 0.02% polysorbate 20, pH 5.7. Erlotinib (TARCEVA™) was provided by OSI Pharmaceuticals to the Pharmaceutics Department at Genentech and was weighed out along with a sufficient amount of vehicle (methylcellulose tween (MCT)). All material was shipped from Genentech, Inc. to the Van Andel Research Institute (VARI; Grand Rapids, Mich.) and was formulated prior to animal treatments. Materials were stored in a refrigerator set to maintain a temperature range of 4° C. to 8° C. The NCI-H596 cell line was obtained from American Type Culture collection (Manassas, Va.).
Species. Forty human HGF transgenic C3H-SCID mice (hu-HGF-Tg-C3H-SCID) were obtained from the in-house colony at the Van Andel Research Institute (VARI; Grand Rapids, Mich.). Five C3H-SCID mice were obtained from Jackson Laboratories. Animals were 4-6 weeks old and weighed 21-22 grams each. Mice were acclimated to study conditions for at least three days prior to tumor cell inoculations. Mice were housed in a shower-in barrier facility. Animals were housed in ventilated caging systems in rooms with filters supplying High-Efficiency Particulate Air (HEPA). Only animals that appeared to be healthy and were free of obvious abnormalities were used for the study.
Study design. As most HGF responsive tumors are driven in a paracrine fashion, a xenograft model that models paracrine driven growth was selected. Mouse HGF is a poor ligand for human c-met leading to a low biological response of human c-met expressing cells lines to mouse HGF (Bhargava, M., et al., 1992; Rong, S., et al., 1992). […]
The NCI-H596 cell line bears a mutated form of the c-met gene lacking exon 14 that encodes a binding site for the E3 ubiquitin ligase Cbl (Kong-Beltran, M., 2006). […] The responsiveness of NCI-H596 can also be seen in vivo, as the cell line readily form tumors in HGF-Tg-SCID mice (expressing human HGF, as noted above), but will not form tumors in immunocompromised mice lacking human HGF (nu/nu nude mice or SCID mice). […]
NCI-H596 cells were cultured in growth media that consisted of RPMI 1640 media (Invitrogen), 2 mM L-glutamine, and 10% fetal bovine serum. […] A subset of cells was counted by trypan blue exclusion and the remainder of the cells was resuspended in 100 μl of sterile 1× PBS to a concentration of 5×10^6 cells per milliliter.
Mice were prepared for inoculation by shaving the dorsal area with clippers. […] Tumors were monitored until they reached a mean volume of 100 mm^3. […]

The target in a further experiment is T1, c-met (Homo sapiens, UniProt P08581, DEL964-1010).
T1 construct: endogenous in cells; host or cells: NCI-H596 (human NSCLC) cells grown as xenograft tumours in hu-HGF-Tg-SCID mice; tumour lysate, IP and immunoblot
Nature of the experiment: c-met phosphorylation in NCI-H596 hu-HGF-Tg-SCID xenograft tumors (IP/immunoblot). To be noted: MetMAb 30 mg/kg 24 h, erlotinib 150 mg/kg 6 h prior to harvest, average of 5 animals. Format: in vivo, mouse xenograft. On the procedure: (§1) Tumors were allowed to grow to 200-300 mm^3 prior to treatment. Dosing was performed as described in Table 8. Briefly, MetMAb (30 mg/kg) or MetMAb buffer was dosed at time zero hours (0 hr) and methylcellulose tween vehicle (MCT) or erlotinib (150 mg/kg) was dosed at time 18 hours (18 hr). Mice were euthanized and tumors and plasma collected at time 24 hours (24 hr). Tumors were snap frozen in liquid nitrogen and then kept at −70° C. until they were processed for immunoprecipitation and immunoblotting.
Immunoprecipitations and Immunoblotting: To process tumors for protein analysis, tumors were first homogenized using a glass dounce with lysis buffer (Cell Signaling Technology, Inc., Danvers, Mass.), supplemented with 1 mM PMSF, additional protease inhibitor cocktail, and phosphatase inhibitor cocktail I and II (Sigma, Inc., St. Louis, Mo.). Lysates were incubated on ice for one hour and then centrifuged at 14,000×g for five minutes and supernatants collected. Protein concentrations were determined using the BCA™ Protein Assay Kit (Pierce, Inc., Rockford, Ill.) and samples were immunoblotted. […] For direct Western blots, 50 μg of tumor lysate was loaded per lane. Samples were then analyzed by SDS-PAGE and immunoblotting. […] Goat-anti-mouse-IRdye800 (Rockland Immunochemicals, Inc., Gilbertsville, Pa.) and goat-anti-rabbit-AlexaFluor680 (Molecular Probes, Inc., Eugene, Oreg.) were used as secondary antibodies. Immunoblots were imaged and phospho-protein levels were quantified and normalized to total protein levels (e.g. pEGFR over total EGFR) using an Odyssey imager (LI-COR Biosciences, Lincoln, Nebr.).
Twenty hu-HGF-Tg-SCID mice were inoculated with NCI-H596 cells and tumors established, as previously described. Once tumors reached sizes between 200-300 mm^3, mice were evenly grouped into four groups based upon tumor volume and dosing was begun (Table 8). MetMAb was dosed 24 hours prior to tumor harvest whereas erlotinib was dosed 6 hours prior to harvest. Dosing times were selected based on the relative half-life of each therapeutic agent. […]

The next experiment deals with ERK-1/2. Nature of the experiment: phospho-ERK-1/2 in NCI-H596 hu-HGF-Tg-SCID xenograft tumors (immunoblot). Format: in vivo, human. The following applies: MetMAb 30 mg/kg 24 h, erlotinib 150 mg/kg 6 h prior to harvest, average of 5 animals. As for the experimental part: as §1
(§2) Immunoprecipitations and Immunoblotting: To process tumors for protein analysis, tumors were first homogenized using a glass dounce with lysis buffer (Cell Signaling Technology, Inc., Danvers, Mass.), supplemented with 1 mM PMSF, additional protease inhibitor cocktail, and phosphatase inhibitor cocktail I and II (Sigma, Inc., St. Louis, Mo.). Lysates were incubated on ice for one hour and then centrifuged at 14,000×g for five minutes and supernatants collected. Protein concentrations were determined using the BCA™ Protein Assay Kit (Pierce, Inc., Rockford, Ill.) and samples were immunoblotted. […] Samples were then analyzed by SDS-PAGE and immunoblotting. […] Immunoblots were imaged and phospho-protein levels were quantified and normalized to total protein levels (e.g. pEGFR over total EGFR) using an Odyssey imager (LI-COR Biosciences, Lincoln, Nebr.). […]

For a further experiment, the target named is T2, EGFR (Homo sapiens, UniProt P00533).
T2 construct: endogenous in cells; host or cells: NCI-H596 (human NSCLC) cells grown as xenograft tumours in hu-HGF-Tg-SCID mice; tumour lysate, IP with MI-12-1 and immunoblot
Nature of the experiment: EGFR phosphorylation in NCI-H596 hu-HGF-Tg-SCID xenograft tumors (IP/immunoblot). Format: in vivo, mouse xenograft. To be noted: MetMAb 30 mg/kg 24 h, erlotinib 150 mg/kg 6 h prior to harvest, average of 5 animals. On the procedure: as §1, §2

Results on two molecules are retold here after patent US20160303127A1, “COMBINATION THERAPY WITH C-MET AND EGFR ANTAGONISTS” (Genentech, Inc., priority 2008, published 2016).

Where “and” joins values, the source holds several entries; their conditions need not be identical. Equal entries are not always repeated.

Turning to `C#Cc1cccc(Nc2ncnc3cc(OCCOC)c(OCCOC)cc23)c1` [erlotinib, N-(3-ethynylphenyl)-6,7-bis(2-methoxyethoxy)-4-quinazolinamine], in the experiment with NCI-H596 tumors, the “reduction in tumor growth compared to the vehicle control” value is recorded as “statistically insignificant reduction” and the “mean time to tumor doubling (TTD)” value is listed as 9.5 (±1.2) days. Moreover, the “pMet/total Met (c-met phosphorylation)” value at c-met is “did not reduce c-met phosphorylation”. At c-met (listed as Erlotinib), the “pMet/total Met (c-met phosphorylation)” value was 157 (±103.4) % of vehicle control. Besides, the “pERK1/2/total ERK1/2” value in the experiment on ERK-1/2 (listed as Erlotinib) is 39% (+/−8.9%) % of vehicle control and 39 (±8.9) % of vehicle control.

B1: MetMAb: Anti-c-met monovalent monoclonal antibody MetMAb (rhuOA5D5v2) (WO2007/063816) (antibody, chains of the INN, looked up, V domains shown)
VH: EVQLVESGGGLVQPGGSLRLSCAASGYTFTSYWLHWVRQAPGKGLEWVGMIDPSNSDTRFNPNFKDRFTISADTSKNTAYLQMNSLRAEDTAVYYCATYRSYVTPLDYWGQGTLVTVSS
VL: DIQMTQSPSSLSASVGDRVTITCKSSQSLLYTSSQKNYLAWYQQKPGKAPKLLIYWASTRESGVPSRFSGSGSGTDFTLTISSLQPEDFATYYCQQYYAYPWTFGQGTKVEIK
modifications: one-armed
In the case of B1, in the experiment on NCI-H596 tumors, the “reduction in tumor growth compared to the vehicle control” value was determined as 67% and the “mean time to tumor doubling (TTD)” value is on record as 17.8 (±2.2) days. For the same molecule, in the experiment with EGFR, the “pEGFR/total EGFR (phosphorylation of EGFR)” value is 62% (+/−21.6%) % of vehicle control and 62 (±21.6) % of vehicle control. Moreover, the “pMet/total Met (c-met phosphorylation)” value in the experiment with c-met was 12% (+/−3.6%) % of vehicle control and 12 (±3.5) % of vehicle control. In the experiment on ERK-1/2, the “pERK1/2/total ERK1/2” value was 72% (+/−40.3%) % of vehicle control and 72 (±40.3) % of vehicle control.
